This assay has as its target T1, HIV-1 PR (HIV-1 protease) (HIV-1 M:B_HXB2R, UniProt P04585).
T1 construct: gene gag-pol; mature protease cut from Gag-Pol polyprotein (Pr160Gag-Pol); SensoLyte 520 HIV-1 assay kit; homodimer
It counts as biochemical. The following applies: n = 3; read-out: HIV-1 PR / IC50 ± SD (mg/mL) (converted).

Turning to `O=c1cc(-c2ccc(O)cc2)oc2cc(O)cc(O)c12` [Apigenin], the IC50 was 481 µM.

As for `O=C(O)[C@H]1O[C@@H](Oc2cc3oc(-c4ccccc4)cc(=O)c3c(O)c2O)[C@H](O)[C@@H](O)[C@@H]1O` [Baicalin], the IC50 is 1860 µM.

Consider `O=c1cc(-c2ccc(O)cc2)oc2cc(O)c(O)c(O)c12` [Scutellarein], for which the IC50 was 238 µM.

Consider `O=c1cc(-c2ccc(O)c(O)c2)oc2cc(O)cc(O)c12` [Luteolin], for which the IC50 was 136 µM.

Take `O=C1C[C@@H](c2ccc(O)cc2)Oc2cc(O)cc(O)c21` [Narigenin]: the IC50 is 661 µM.

Consider `COc1c(O)cc(O)c2c(=O)cc(-c3ccccc3)oc12` [Wogonin], for which the IC50 was 1410 µM.

Values taken from paper PMC10254773, “Identification of Flavonoids from Scutellaria barbata D. Don as Inhibitors of HIV-1 and Cathepsin L Proteases and Their Structure–Activity Relationships” (Molecules, 2023).
